In ChEMBL document CHEMBL4742392, “Tetrahydropyridopyrazine modulators of GPR6” (2019):

Tests used:
[1] = Cardiotoxicity in Beagle dog at 30 to 300 mg/kg, po by telemetry analysis; assay type: toxicity, organism-based, Canis lupus familiaris; details: in vivo, dose 30-300 mg/kg
Rattus norvegicus = organism: Rattus norvegicus; test: Neuroprotective actvity against 6-OHDA-induced rat Parkinson's disease model assessed as improved locomotory actvity by open-field test; assay type: functional, organism-based; details: dose 5-10 mg/kg

For `CC(=O)N1CCc2nc(N3CCC(Oc4ccc(F)cc4F)CC3)c(N[C@@H]3CCOC3)nc2C1`, the Activity [1] was “Non-Toxic” and the Activity (Rattus norvegicus) was “Dose-dependent effect”.
